According to the OligoGym collection:
These antisense oligonucleotides have a phosphorothioate backbone; sugars and methylation of C are not fully specified.

Target: PRKACA
Conditions: ASO
Note: test concentration or dose not given here.

Sequence | remaining target (mRNA or protein) (fraction of control)
CAAACTGATCCAAGTGGGCT | 0.27
AAACCACTTGTGGTTCTTGA | 0.66
GCTTCTCTTTAAAATGGATT | 0.84
GCGGCGGGTGCTGGCTGCGG | 0.85
GGCATGCCCCTAAAACTCAG | 0.55
TTGGCGCTTCGTTCATTTGC | 0.61
CGGCGTTGCCCATCGCGGCG | 0.47
TGGCTCCCCAGCGGCTCCCC | 0.64
CGGCGGCGGCGTTGCCCATC | 0.21
TGGCTGCGGCCGGCGGCCCG | 0.51
CCCATCGCGGCGGCGGCGGC | 0.53
TCCTTCAAGTCAGAGCTGAA | 0.56
GGCGGCGTTGCCCATCGCGG | 0.31
TGCAGGGATGCCCTCCCCAC | 0.35
GCGGCCCTTCACGCGCTTGG | ≥ 1
ATTCTTTCACGCTCTCCTGC | 0.97
CAGGCAGCCCCTCCCCAGCA | 0.51
CCTTGAACCCCGGGCCGTGG | 0.44
GTTGCCCATCGCGGCGGCGG | 0.53
CTTCTGTTTGTCGAGGATCT | 0.49
TAGATGAGATCCAGCGAGTG | 0.72
TCGCGGCGGCGGCGGCCGGG | 0.81

Target: PTPN11
Conditions: ASO

Sequence | remaining target (mRNA or protein) (fraction of control)
CATCTCCGCGATGTCATGTT | 0.49
TGTTCCTCCCGCCCTCCGGC | ≥ 1
TTTAAATGGTTTCAAATTTT | ≥ 1
GGCCCGCTCGGGACCGGACG | 0.75
CTGTGGTCTCAGCTAATTTG | 0.35
CATGTTCCTCCCGCCCTCCG | 0.29
ACGGACCCGCTCCTTGCTCA | 0.48
ATCTGCACAGTTCAGAGGAT | 0.51
AAGAATATCAATCACAATGA | ≥ 1
TCATCTGAAACTTTTCTGCT | 0.84
ATCTATTTCTGTGCTGAAGT | 0.66
TTCTTCCCAAAAGCCTTGTT | 0.67
ACATAAACTTTCTTGCGTCT | 0.88
GTCATGTTCCTCCCGCCCTC | 0.24
GGCAGGTTTTCTCATCTGAA | 0.84
ATGTCATGTTCCTCCCGCCC | 0.43

Sequence | remaining target (mRNA or protein) (fraction of control)
GAAAGAACAAAATCTCCAGG | ≥ 1
CCTGCGCTGTAGTGTTTCAA | 0.5
TTTAGACTTGCCGTCATTGC | 0.32
CGATGTCATGTTCCTCCCGC | 0.4
TCAACCACATTGCAAGCCTT | 0.27
CGCACCATCTGGATGGTTTT | 0.5
AAAGTCATTCACCGTGTTTT | 0.54
CGCGATGTCATGTTCCTCCC | 0.45
ATGCTCTCCTGCTTATGGTG | 0.37
AAAGAATCAAACCGTTCTCC | 0.58
TTGCATTGATGTAATCTGAA | 0.98
TCTCCGCGATGTCATGTTCC | 0.43
TCCACCATAGGATTCTTCTT | 0.43
TTCCATGTAATACTGGACCA | 0.29
ACCATCTCCGCGATGTCATG | 0.33
TTGATGTGGGTGACAGCTCC | 0.42
